Experiments:
[1] = tested on: Streptococcus pneumoniae; details: disc 6: NaCl 400 mg/mL (control)
[2] = tested on: Neisseria gonorrhoeae; details: disc 6: NaCl 400 mg/mL (control)
[3] = tested on: Pseudomona aeruginosa; details: disc 6: NaCl 400 mg/mL (control)
[4] = tested on: Shigella flexneri; details: disc 6: NaCl 400 mg/mL (control)
[5] = tested on: Klebsiela; details: disc 6: NaCl 400 mg/mL (control)
[6] = tested on: Shigella dysenteriae; type: cell-based; details: disc 6: NaCl 400 mg/mL (control)
[7] = tested on: Streptococcus aureus; details: disc 6: NaCl 400 mg/mL (control)
[8] = tested on: Streptococcus pyogenes; details: disc 6: NaCl 400 mg/mL (control)
[9] = tested on: Salmonella tifi; type: cell-based; details: disc 6: NaCl 400 mg/mL (control)
[10] = tested on: Proteus vulgaris; details: disc 6: NaCl 400 mg/mL (control)
[11] = tested on: Escherichia coli; details: disc 6: NaCl 400 mg/mL (control)
[12] = tested on: Brucella suis; type: cell-based; details: disc 6: NaCl 400 mg/mL (control)
[13] = tested on: Neisseria meningitides; details: disc 6: NaCl 400 mg/mL (control)
[14] = tested on: Haemophilus influenzae; details: disc 6: NaCl 400 mg/mL (control)
[15] = tested on: Rauscher MuLV; assay: Rauscher Murine Virus (Rauscher MuLV) system in vivo, splenomegaly; details: rivabirin control, dose not given; in comparison with infected animals that received no treatment

Work on `[Cl-].[Na+]` [NaCl] yielded an inhibitory halos [1] of 6 mm, an inhibitory halos [2] of 14 mm and an inhibitory halos [3] of 6 mm. The inhibitory halos [4] was 6 mm, the inhibitory halos [5] was 6 mm and the inhibitory halos [6] was 6 mm. For the same compound, the inhibitory halos [7] was 6 mm, the inhibitory halos [8] was 6 mm and the inhibitory halos [9] was 6 mm. It also gave an inhibitory halos [10] of 6 mm, an inhibitory halos [11] of 6 mm and an inhibitory halos [12] of 6 mm. For the same compound, the inhibitory halos [13] was 6 mm and the inhibitory halos [14] was 6 mm.

`NC(=O)c1ncn([C@@H]2O[C@H](CO)[C@@H](O)[C@H]2O)n1` [rivabirin] was tested, and the “reduction of the spleen size” value [15] was 74%.
